Three molecules from US7329726B2, “Physiologically active peptides” (Seiren Kabushiki Kaisha, priority 2004, dated 2008) can be followed below.

The subject of experiment [1] is insect cell Sf9. Put plainly: Evaluation Test 2: Cell growth-promoting activity (MTT assay under serum-deprived conditions). In kind it is cell-based. Particulars: Sf9 cells; for OD 595 nm Average ± Standard deviation (n = 4): medium without FCS, 9 days at 27.5° C. The method, then:
Cell growth-promoting activity of the peptide according to the present invention was evaluated using an insect cell Sf9 (Invitrogen).
It is known that marked cell death as shown in Evaluation Test 1 and thereafter a decrease in cell growth occur when the Sf9 cells are exposed to drastic serum-deprived conditions. In this test, the cells to be tested were exposed under such drastic serum-deprived conditions and their growth ability was measured to evaluate cell growth-promoting effect of the peptide according to the present invention.
A cell suspension was prepared in the same manner as in Evaluation test 1, and peptide solutions were prepared using peptide A (the present invention) as in Evaluation test 1. Next, 50 μl of this cell suspension and 50 μl each of the peptide solutions were dispensed on a 96-well cell culture plate in the same manner as in Evaluation test 1, and this culture plate was incubated at 27.5° C. for 9 days.
After 9 days of incubation, cell growth-promoting effect was evaluated by the MTT assay.
Specifically, to each well of the 96-well plate incubated for 9 days was added 5 μl of 5 mg/ml 3-(4,5-dimethyl-2-thiazolyl)-2,5-diphenyl tetrazolium bromide (MTT) in phosphate-buffered physiological saline, and the plate was incubated at 27.5° C. for further 5 hours. During this culture process, MTT is transformed into insoluble formazan in viable cells. After 5 hours of incubation, cell culture supernatant was completely removed and then 200 μl each of a 10 mM […] solution with 10% SDS was added to each well to completely dissolve the cells and formazan in the cells. Next, the absorption coefficient at 595 nm was measured for each well using a microplate reader.
As a comparative example, an experiment was carried out in the same manner as the one with the abovementioned peptide A, except that peptide B was used in place of peptide A (the present invention), and then the absorption coefficient at 595 nm was measured for each well.
As another comparative example, an experiment was carried out in the same manner as described above for peptide A, except that a bovine serum albumin (Sigma) solution was used in place of the abovementioned peptide solutions, and then the absorption coefficient at 595 nm was measured for each well.
Here the value of the absorption coefficient in the NTT assay increases with an increase in viable cell density.

For experiment [2], the system named is insect cell Sf9. It counts as cell-based. Particulars: Sf9 cells; for Survival rate (%) Average ± Standard deviation (n = 4): Sf900IISFM medium without FCS, 5 days at 27.5° C. How it is done:
Cell death-preventing activity of the peptide according to the present invention was evaluated using an insect cell Sf9 (Invitrogen).
The Sf9 cell is usually subcultured using an Sf900IISFM medium (Invistrogen) containing 10% FCS (fetal calf serum) (Sigma) at a temperature of 27.5° C. It is known that marked cell death occurs when the Sf9 cells thus cultured are abruptly transferred into a medium without FCS and thus exposed to drastic serum-deprived conditions. In this test, cells to be tested were exposed under such drastic serum-deprived conditions and their survival rate was measured to evaluate cell death-preventing effect of the peptide according to the present invention.
First, Sf9 cells subcultured using a medium supplemented with 10% FCS were centrifuged at 1000 rpm at 4° C. for 5 minutes. Next, the supernatant was removed and the precipitated cells were suspended in an Sf900IISFM medium without FCS. The suspension was recentrifuged at 1000 rpm at 4° C. for 5 minutes to wash the cells.
Next, in order to expose the cells under drastic serum-deprived conditions, the washed cells were resuspended in an Sf900IISFM medium without FCS and a cell suspension having a cell density of 5×10^5 cells/ml was prepared.
On the other hand, peptide A (the present invention) was dissolved in an Sf900IISFM medium without FCS and peptide solutions were prepared at peptide concentrations of 0.2 mg/ml, 0.6 mg/ml, and 2.0 mg/ml. The peptide solutions thus prepared were sterilized by filtration.
Next, 50 μl of the abovementioned cell suspension and 50 μl each of the abovementioned peptide solutions were dispensed on a 96-well cell culture plate at a final cell density of 2.5×10^5 cells/ml and final peptide concentrations of 0.1 mg/ml, 0.3 mg/ml, and 1.0 mg/ml, respectively. This culture plate was incubated at 27.5° C. for 5 days.
After 5 days of incubation, cells were stained with Trypan blue and the number of dead cells and the number of viable cells were counted to obtain the survival rate. Here the survival rate means the ratio of the viable cell count to the total cell count upon cell counting.
As a comparative example, an experiment was carried out in the same manner as described above for peptide A, except that peptide B was used in place of peptide A (the present invention), to obtain the survival rate.
As another comparative example, an experiment was carried out in the same manner as described above for peptide A, except that a bovine serum albumin (Sigma) solution was used in place of the abovementioned peptide solutions, to obtain the survival rate.

Where [3] appears, read: sample concentration 1.0 mg/ml, listed as peptide A.

Where two headings read alike, the source gives them in different places. Peptide text beside a SMILES is read from it.

Regarding “bovine serum albumin [reference compound]”, in the experiment with insect cell Sf9 [1] (sample concentration 0.3 mg/ml), the “OD 595 nm Average ± Standard deviation (n = 4)” value was determined as 0.90 ± 0.03. Besides, the “Survival rate (%) Average ± Standard deviation (n = 4)” value in the experiment with insect cell Sf9 [2] (sample concentration 0.3 mg/ml) worked out at 62.5 ± 3.0%.
`C[C@@H](O)[C@H](NC(=O)[C@H](CO)NC(=O)[C@H](CO)NC(=O)CNC(=O)CNC(=O)[C@@H](N)CO)C(=O)N[C@@H](Cc1ccc(O)cc1)C(=O)NCC(=O)N[C@@H](Cc1ccc(O)cc1)C(=O)N[C@@H](CO)C(=O)O` [Peptide A] (H-SGGSSTYGYS-OH; N-terminus assumed): the “OD 595 nm Average ± Standard deviation (n = 4)” value in the experiment on insect cell Sf9 [1] (sample concentration 0.1 mg/ml) is reported as 0.48 ± 0.01; in the experiment with insect cell Sf9 [1] (sample concentration 0.3 mg/ml) it was 0.80 ± 0.02; in the experiment with insect cell Sf9 [1] (sample concentration 1.0 mg/ml) it was 0.92 ± 0.02; in the experiment on insect cell Sf9 [1] (setting [3]), “about 0.9”. The “cell growth-promoting activity compared with peptide B (comparative example)” value with insect cell Sf9 [1] (serum-deprived, 9 days) is recorded as “higher than that with peptide B”. Besides, the “Survival rate (%) Average ± Standard deviation (n = 4)” value in the experiment with insect cell Sf9 [2] (sample concentration 0.1 mg/ml) is 28.5 ± 3.4%; in the experiment with insect cell Sf9 [2] (sample concentration 0.3 mg/ml), 47.3 ± 2.9%; in the experiment on insect cell Sf9 [2] (sample concentration 1.0 mg/ml), 58.0 ± 3.2%; in the experiment with insect cell Sf9 [2] (setting [3]), “about 60%”. Moreover, in the experiment on insect cell Sf9 [2] (serum-deprived, 5 days), the “survival rate compared with peptide B (comparative example)” value is given as “higher than that with peptide B”.

B1: Peptide B: peptide having the amino acid sequence of SEQ ID NO: 3, 2 repeats of the 38 amino acid sequence contained in natural sericin (WO 02/086133) (protein)
chain: SSTGSSSNTDSNSNSAGSSTSGGSSTYGYSSNSRDGSVSSTGSSSNTDSNSNSAGSSTSGGSSTYGYSSNSRDGSV
modifications: Peptide derived from sericin
For the molecule B1, the “OD 595 nm Average ± Standard deviation (n = 4)” value with insect cell Sf9 [1] (sample concentration 0.3 mg/ml) is reported as 0.72 ± 0.03. Moreover, in the experiment on insect cell Sf9 [2] (sample concentration 0.3 mg/ml), the “Survival rate (%) Average ± Standard deviation (n = 4)” value stood at 46.1 ± 2.2%.
